Reference: patent US20260308149A1, “NOVEL CARBOXAMIDE DERIVATIVES” (ANGELINI PHARMA S.P.A., priority 2023, published 2026)

Target: T1, human Kv7.2 (Homo sapiens, UniProt O43526)
T1 construct: expressed in transfected cells
Experiment: activation (potentiation) of Kv7.2 current, SyncroPatch 384 electrophysiology in CHO cells stably expressing human Kv7.2
Type: cell-based
Details: human Kv7.2 in CHO cells; in presence of 5.6 μM zinc pyrithione; % activation relative to 30 μM ML-213
Protocol: The potency of Kv7 potentiators was determined using the SyncroPatch 384 (Nanion) high throughput electrophysiology platform.
CHO cells stably expressing either human Kv7.2, Kv7.4 or Kv7.5/7.3 under a constitutive CMV promoter were used for these studies. Cells were maintained in F12 Hams+1 mM L-glutamine (Hyclone) supplemented with 10% FBS (Sigma), 0.3×NEAA (Non-essential Gamino-acids) and 400 ug/ml G418 at 37° C. in 5% CO2. Cells were cultured in T-225 flasks (Nunc) for 2-3 days to reach 85-95% confluence prior to electrophysiological recording.
Earle's balanced salt solution (in mM): 135 NaCl, 5.4 KCl, 5 Glucose, 2 CaCl2), 1 MgCl2, 5 HEPES, pH 7.4. Seal enhancer solution (in mM): 90 NaCl, 3 KCl, 35 CaCl2), 10 MgCl2, 10 HEPES, pH 7.4. Extracellular recording solution (in mM): 71 NaCl, 70 NMDG, 13 KCl. 5 Glucose, 2 CaCl2, 1 MgCl2, 10 HEPES, pH 7.4. Intracellular recording solution (in mM): 130 KF, 20 KCl, 4 EGTA, 10 HEPES, 2 EDTA, 0.01 Escin, pH 7.2.
Cells were harvested for electrophysiological recording upon reaching appropriate confluence. Cells were first washed in DPBS (Hyclone, Cat #SH30028.03) and then 2 ml of Accutase (MP Biomedicals #1000449) was added at 28° C. until ~90% of cells were suspended. F12 HAM's media+1 mM L-glutamine (Hyclone, SH30026.02) was then added to the flask to dilute the accutase. Cells were then triturated until a single cell suspension was achieved, a cell count was performed, and cells were centrifuged for 2 min. at 1,000 rpm. Media was then aspirated, and cells were resuspended in Earle's balanced salt solution to a concentration of 0.75×10^6 cells/ml and allowed to recover for 25 min at 10° C.
At the beginning of each assay, 20 μl of cell suspension was dispensed into each well of a multi-hole 384-well SyncroPatch chip by the onboard pipettor. Cell sealing was initiated, and seal enhancer solution was added to facilitate seal formation. Upon completion of sealing, cells were washed 3 times with extracellular recording solution and the assay voltage protocol was started. Human Kv7.2, Kv7.4 or Kv7.5/7.3 channels were evaluated using a voltage protocol in which cells were voltage-clamped at a holding potential of −60 mV. Potassium currents were continuously activated with a series of three voltage steps to −30 mV for 3 seconds, 40 mV for 1 second and −90 mV for 4 seconds with 12 seconds between successive voltage sweeps. Potassium currents were measured from the −90 mV repolarizing step. Baseline current was assessed for 3.5 minutes prior to the addition of 5.6 μM zinc pyrithione (1 μM for Kv7.4). Kv7.2, Kv7.4 or Kv7.5/7.3 current in the presence of zinc pyrithione was acquired over five minutes to allow channels to reach steady state activity prior to addition of test agents. Channel activity was monitored for three minutes preceding the addition of 30 μM ML-213 (3 minutes) to achieve maximum activation. 150 mM TEA with 10 μM XE-991 was applied for 2 minutes to measure the leak current during maximum inhibition of Kv7.2, Kv7.4 or Kv7.5/7.3 channels.
Data were collected on the SyncroPatch platform using PatchControl software (Nanion) and processed and analyzed using DataControl Software (Nanion). Percent activation was calculated from potassium current as follows: The average current for the 5 sweeps in the presence of zinc pyrithione immediately preceding test agent addition was taken as the ‘control’ data. Likewise, the average potassium current in the presence of test agents 5 sweeps immediately preceding addition of 30 μM ML-213 was determined for ‘drug’ data. The average potassium current 5 sweeps immediately prior to addition of 150 mM TEA+10 μM XE-991 was determined for ‘max activation’ data while average currents from 5 sweeps immediately following addition of TEA was determined for ‘max inhibition’ data. Percent activation for each of the 384-wells of a sealchip was calculated as ((‘drug’−‘max inhibition’)/(‘max activation’−‘max inhibition’))*100 with Pipeline Pilot (Accelrys). […]

T1 sequence (O43526 whole entry): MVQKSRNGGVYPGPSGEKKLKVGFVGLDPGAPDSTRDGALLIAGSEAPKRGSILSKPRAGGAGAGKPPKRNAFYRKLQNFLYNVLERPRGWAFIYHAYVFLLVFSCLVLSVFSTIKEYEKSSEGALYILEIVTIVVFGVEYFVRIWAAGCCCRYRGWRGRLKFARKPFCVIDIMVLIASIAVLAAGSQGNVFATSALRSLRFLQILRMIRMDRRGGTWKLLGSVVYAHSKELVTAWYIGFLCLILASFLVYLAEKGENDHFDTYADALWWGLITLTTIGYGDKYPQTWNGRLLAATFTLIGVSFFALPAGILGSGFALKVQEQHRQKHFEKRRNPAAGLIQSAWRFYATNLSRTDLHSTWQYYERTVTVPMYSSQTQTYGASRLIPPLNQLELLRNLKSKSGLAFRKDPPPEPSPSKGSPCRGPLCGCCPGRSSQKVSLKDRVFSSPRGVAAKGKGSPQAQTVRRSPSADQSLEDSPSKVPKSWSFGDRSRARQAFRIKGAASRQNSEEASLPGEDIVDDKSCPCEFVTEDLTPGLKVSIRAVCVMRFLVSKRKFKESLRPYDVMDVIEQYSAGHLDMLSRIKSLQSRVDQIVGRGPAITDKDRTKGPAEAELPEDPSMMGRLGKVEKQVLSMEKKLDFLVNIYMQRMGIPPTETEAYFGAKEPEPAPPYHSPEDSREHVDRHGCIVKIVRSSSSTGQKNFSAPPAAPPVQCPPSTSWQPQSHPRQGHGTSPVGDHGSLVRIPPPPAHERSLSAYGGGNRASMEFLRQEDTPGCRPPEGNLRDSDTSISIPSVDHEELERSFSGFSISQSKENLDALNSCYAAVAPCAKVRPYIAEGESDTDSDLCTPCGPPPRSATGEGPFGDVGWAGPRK

Structure (SMILES) | EC50
O=C1CCC(CNC(=O)[C@H]2C[C@@H]2c2ccccc2)(c2cccc(Cl)c2)O1 (stereo partly drawn) [Example 66, (1S,2S)-N-[[2-(3-chlorophenyl)-5-oxo-tetrahydrofuran-2-yl]methyl]-2-phenyl-cyclopropanecarboxamide] | 80 nM
O=C(NCC1(c2cccc(Cl)c2)COC1)[C@H]1C[C@@H]1c1ccccc1 [Example 68, (1S,2S)—N-[[3-(3-chlorophenyl)oxetan-3-yl]methyl]-2-phenyl-cyclopropanecarboxamide] | 200 nM
O=C(CC1CCC(F)(F)CC1)NCC1(c2cccc(Cl)c2)CCO1 (stereo not shown) [Example 65, N-[[2-(3-chlorophenyl)oxetan-2-yl]methyl]-2-(4,4-difluorocyclohexyl)acetamide] | 1920 nM
N#Cc1cccc([C@@]2(CNC(=O)CC3CC4CCC3C4)CCO2)c1 (stereo partly drawn) [Example 97, N-[[(2R)-2-(3-cyanophenyl)oxetan-2-yl]methyl]-2-norboman-2-yl-acetamide] | 1280 nM
N#Cc1cccc([C@]2(CNC(=O)C3CC3n3cccc3)CCO2)c1 (stereo partly drawn) [Example 135, N-[[(2S)-2-(3-cyanophenyl)oxetan-2-yl]methyl]-2-pyrrol-1-yl-cyclopropanecarboxamide] | 1140 nM
N#Cc1cccc([C@]2(CNC(=O)CC3(O)CC4CCC3C4)CCO2)c1 (stereo partly drawn) [Example 111, N-[[(2S)-2-(3-cyanophenyl)oxetan-2-yl]methyl]-2-(2-hydroxynorbornan-2-yl)acetamide] | 2010 nM
COC(CNC(=O)[C@H]1C[C@@H]1c1ccccc1)c1cccc(Cl)c1 (mixture of isomers) [Example 20, rac-(1R,2R)-N-[2-(3-chlorophenyl)-2-methoxy-ethyl]-2-phenyl-cyclopropanecarboxamide] | 970 nM
COC(C)(CNC(=O)NCC1CCCC1)c1cccc(Cl)c1 (single isomer, unassigned) [Example 71] | 530 nM
CCOC(CNC(=O)NC1CCCC1)c1cccc(Br)c1 (stereo not shown) [Example 28, 1-[2-(3-bromophenyl)-2-ethoxy-ethyl]-3-cyclopentyl-urea] | 2580 nM
COC(C)(CNC(=O)/C=C/c1ccccc1F)c1cccc(Cl)c1 (stereo not shown) [Example 47, (E)-N-[2-(3-chlorophenyl)-2-methoxy-propyl]-3-(2-fluorophenyl)prop-2-enamide] | 7510 nM
N#Cc1cccc([C@]2(CNC(=O)[C@H]3C[C@@H]3C3CC(F)(F)C3)CCO2)c1 (mixture of isomers) [Example 127, (1SR,2RS)—N-[[(2S)-2-(3-cyanophenyl)oxetan-2-yl]methyl]-2-(3,3-difluorocyclobutyl)cyclopropanecarboxamide] | 1040 nM
N#Cc1cccc([C@]2(CNC(=O)[C@H]3C[C@@H]3c3ccccn3)CCO2)c1 (mixture of isomers) [Example 124, (1SR,2SR)—N-[[(2S)-2-(3-cyanophenyl)oxetan-2-yl]methyl]-2-(2-pyridyl)cyclopropanecarboxamide] | 6010 nM
O=C(NCC1(c2ccnc(OC(F)F)c2)CCO1)C1CC12CCC(F)(F)CC2 (stereo not shown) [Example 118, N-[[2-[2-(difluoromethoxy)-4-pyridyl]oxetan-2-yl]methyl]-6,6-difluoro-spiro[2.5]octane-2-carboxamide] | 5520 nM
O=C(NCC1CCCCO1)NCC1(c2cccc(Cl)c2)CC1 (stereo not shown) [Example 15, 1-[[1-(3-chlorophenyl)cyclopropyl]meth-yl]-3-(tetrahydropyran-2-ylmethyl)urea] | 6920 nM
CO[C@@](C)(CNC(=O)[C@H]1C[C@H]1C1CCCC1)c1cccc(Cl)c1 (mixture of isomers) [Example 81, (1SR,2SR)—N-[(2R)-2-(3-chlorophenyl)-2-methoxy-propyl]-2-cyclopentyl-cyclopropanecarboxamide] | 500 nM
O=C(NCC1CCCC1)NCC1(c2cccc(Cl)c2)CCO1 (stereo not shown) [Example 59, 1-[[2-(3-chlorophenyl)oxetan-2-yl]methyl]-3-(cyclopentylmethyl)urea] | 320 nM

Structure (SMILES) | EC50
N#Cc1cccc([C@]2(CNC(=O)C3CCC4(CCC4)C3)CCO2)c1 (stereo partly drawn) [Example 102, N-[[(2S)-2-(3-cyanophenyl)oxetan-2-yl]methyl]spiro[3.4]octane-7-carboxamide] | 3010 nM
CO[C@@](C)(CNC(=O)NC1CCCC1)c1cccc(Cl)c1 [Example 16, 1-[(2R)-2-(3-chlorophenyl)-2-methoxy-propyl]-3-cyclopentyl-urea] | 2870 nM
O=C(NC/C(=C/CO)c1cccc(Cl)c1)[C@H]1C[C@@H]1c1ccccc1 [Example 77, (1S,2S)—N-[(E)-2-(3-chlorophenyl)-4-hydroxy-but-2-enyl]-2-phenyl-cyclopropanecarboxamide] | 340 nM
COC(C)(CNC(=O)[C@H]1C[C@@H]1c1ccccc1)c1ccnc(Cl)c1 (mixture of isomers) [Example 51, (1S,2S)-N-[(2RS)-2-(2-chloro-4-pyridyl)-2-methoxy-propyl]-2-phenyl-cyclopropanecarboxamide] | 940 nM
CC(C)(C)CNC(=O)NCC1(c2cccc(Cl)c2)CCO1 (stereo not shown) [Example 60, 1-[[2-(3-chlorophenyl)oxetan-2-yl]methyl]-3-(2,2-dimethylpropyl)urea] | 1050 nM
N#Cc1cccc([C@]2(CNC(=O)C3CC3C3CCC(F)(F)CC3)CCO2)c1 (stereo partly drawn) [Example 136, N-[[(2S)-2-(3-cyanophenyl)oxetan-2-yl]methyl]-2-(4,4-difluorocyclohexyl)cyclopropanecarboxamide] | 400 nM
N#Cc1cccc([C@]2(CNC(=O)[C@H]3C[C@@H]3C3CCCC3)CCO2)c1 [Example 112, (1S,2R)—N-[[(2S)-2-(3-cyanophenyl)oxetan-2-yl]methyl]-2-cyclopentyl-cyclopropanecarboxamide] | 90 nM
O=C(NCC(CO)c1cccc(Cl)c1)[C@H]1C[C@@H]1c1ccccc1 (stereo partly drawn) [Example 74, (1S,2S)—N-[2-(3-chlorophenyl)-3-hydroxy-propyl]-2-phenyl-cyclopropanecarboxamide] | 3100 nM
CC(C)(C)O[C@H]1C[C@@H]1C(=O)NC[C@@]1(c2cccc(C#N)c2)CCO1 (mixture of isomers) [Example 114, (1SR,2SR)-2-tert-butoxy-N-[[(2S)-2-(3-cyanophenyl)oxetan-2-yl]methyl]cyclopropanecarboxamide] | 7520 nM
Cc1ccc(C2CC2C(=O)NC[C@@]2(c3cccc(C#N)c3)CCO2)o1 (stereo partly drawn) [Example 133, N-[[(2S)-2-(3-cyanophenyl)oxetan-2-yl]methyl]-2-(5-methyl-2-furyl)cyclopropanecarboxamide] | 500 nM
COC(C)(CNC(=O)NCC1CC1)c1cccc(Cl)c1 (stereo not shown) [Example 23, 1-[2-(3-chlorophenyl)-2-methoxy-propyl]-3-(cyclopropylmethyl)urea] | 8200 nM
CCc1cc(C2(CNC(=O)[C@H]3C[C@@H]3c3ccccc3)CCO2)ccn1 (stereo partly drawn) [Example 121, (1S,2S)—N-[[2-(2-ethyl-4-pyridyl)oxetan-2-yl]methyl]-2-phenyl-cyclopropanecarboxamide] | 2510 nM
COC(C)(CNC(=O)NC1COC2(CCCC2)C1)c1cccc(Cl)c1 (stereo not shown) [Example 13, 1-[2-(3-chlorophenyl)-2-methoxy-propyl]-3-(1-oxaspiro[4.4]nonan-3-yl)urea] | 3550 nM
O=C(CC1CCCCC1)N[C@H]1C[C@H](c2cccc(Cl)c2)C1 [Example 56, N-[3-(1r,3r)-(3-chlorophenyl)cyclobutyl]-2-cyclohexyl-acetamide] | 3190 nM
CC(C)OC(CNC(=O)NC1CCCC1)c1cccc(Br)c1 (stereo not shown) [Example 24, 1-[2-(3-bromophenyl)-2-isopropoxy-ethyl]-3-cyclopentyl-urea] | 2920 nM
